Assay results as given in article PMC5007854, “β-Nitrostyrenes as Potential Anti-leishmanial Agents” (Frontiers in Microbiology, 2016).
Values after ≈ are worked out from the molar mass of the structure shown. Read-outs that look alike come from different tables or passages of the source.

What was measured:
Format in all cases: cell-based
[1] = tested on: Candida glabrata ATCC 90030; experiment: Broth microdilution antifungal susceptibility (MIC/MFC); settings: Nakaseomyces glabratus; for MIC: broth microdilution, 35°C, 48 h, read-out: MIC, Cg ATCC 90030; for MFC: ≥99.9% reduction of original inoculum, read-out: MFC, Cg ATCC 90030
Excerpt: (§1) One reference each of the following species was used for their in vitro susceptibility to β-nitrostyrene in this study: Staphylococcus aureus ATCC 29213, Staphylococcus epidermidis ATCC 14990, Escherichia coli ATCC 25922, Pseudomonas aeruginosa ATCC 27853, Candida albicans ATCC 90028, Candida glabrata ATCC 90030, Aspergillus fumigatus ATCC 16424 and Aspergillus niger ATCC 16404. These strains were procured from the American Type Culture Collection (ATCC, Manassas, VA, USA).
(§2) The antibacterial and antifungal activities of the β-nitrostyrenes were performed by broth microdilution methods as per the guidelines of Clinical and Laboratory Standard Institute (Wayne, [1998], [2008a],[b],[c]) by using Mueller-Hinton broth (MHB; Becton-Dickinson, Cockeysville, MD, USA) supplemented with calcium (25 mg/L) and magnesium (12.5 mg/L) for bacterial strains while as RPMI 1640 medium with L-glutamine and without sodium bicarbonate, buffered to pH 7.0 with 0.165 M 3-(N-morpholino) propanesulfonic acid (MOPS; both from Sigma) was used for fungal strains. Stock solutions were prepared in 100% dimethyl sulfoxide (DMSO; Sigma; distilled water was used for ciprofloxacin), with a final DMSO concentration of 1% (vol. per vol.) and two-fold serial dilutions were prepared in media in amounts of 100 μL per well in 96-well U-bottom microtiter plates (Tarsons, Kolkata, India) to yield twice the final concentration required for testing, which ranged from 64 to 0.12 μg/mL for β-nitrostyrenes and 16 to 0.03 μg/mL for ciprofloxacin as well as amphotericin B. Stock inoculum suspensions of the bacteria, Candida species and Aspergillus species were prepared in sterile normal saline (0.85%) containing 0.05% polysorbate 20 (NST) from overnight (3 to 5-day old for Aspergillus species) strains grown on Trypticase soy agar (TSA; Becton-Dickinson) and potato dextrose agar (Difco Laboratories, Detroit, MI, USA) respectively at 35°C. Inocula were verified for each assay by plating onto agar plates for colony enumeration. These suspensions were further diluted in the respective test medium and a 100 μl volume of this diluted inoculum was added to each well of the plate, resulting in a final inoculum concentration of approximately 5 × 10^5 CFU/mL for bacter1ia, (Wayne, [2008a]) approximately 2.5 × 10^4 CFU/ml for Candida species (Pfaller et al., [2004]) while as 0.4 × 10^4 to 5 × 10^4 CFU/mL for Aspergillus species (Wayne, [2008c]). Untreated growth control, vehicle control (DMSO) and sterility control wells were included for each isolate tested. Ciprofloxacin and amphotericin B served as the standard drug controls for bacterial and fungal strains, respectively. The microtiter plates were incubated at 35°C for 24 h for bacterial strains and 48 h for fungal strains. The plates were read visually and the minimum inhibitory concentration (MIC) was defined as the lowest concentration of test sample that prevented visible growth with respect to the growth control.
(§3) The minimum bactericidal concentration (MBC) and minimum fungicidal concentration (MFC) were determined by plating 100 μl volumes on agar plates from the wells showing no visible growth (clear MIC well). The plates were incubated as described above in MIC measurements. […] All experiments were conducted twice in duplicates on separate occasions with freshly prepared inoculums and stock solutions.

[2] = tested on: Candida albicans ATCC 90028; experiment: as above; settings: Candida albicans; for MIC: broth microdilution, 35°C, 48 h, read-out: MIC, Ca ATCC 90028; for MFC: ≥99.9% reduction of original inoculum, read-out: MFC, Ca ATCC 90028
Excerpt: as §1, §2, §3

[3] = tested on: Aspergillus fumigatus ATCC 16424; experiment: as above; settings: Aspergillus fumigatus; for MIC: broth microdilution, 35°C, 48 h, read-out: MIC, Af ATCC 16424; for MFC: ≥99.9% reduction of original inoculum, read-out: MFC, Af ATCC 16424
Excerpt: as §1, §2, §3

[4] = tested on: Aspergillus niger ATCC 16404; experiment: as above; settings: Aspergillus niger; for MIC: broth microdilution, 35°C, 48 h, read-out: MIC, An ATCC 16404; for MFC: ≥99.9% reduction of original inoculum, read-out: MFC, An ATCC 16404
Excerpt: as §1, §2, §3

[5] = tested on: Pseudomonas aeruginosa ATCC 27853; experiment: Broth microdilution antibacterial susceptibility (MIC/MBC); settings: Pseudomonas aeruginosa; for MIC: broth microdilution, 35°C, 24 h, read-out: MIC, Pa ATCC 27853; for MBC: ≥99.9% reduction of original inoculum, read-out: MBC, Pa ATCC 27853
Excerpt: as §1, §2, §3

[6] = tested on: Staphylococcus aureus ATCC 29213; experiment: as above; settings: Staphylococcus aureus; for MIC: broth microdilution, 35°C, 24 h, read-out: MIC, Sa ATCC 29213; for MBC: ≥99.9% reduction of original inoculum, read-out: MBC, Sa ATCC 29213
Excerpt: as §1, §2, §3

[7] = tested on: Escherichia coli ATCC 25922; experiment: as above; settings: Escherichia coli; for MIC: broth microdilution, 35°C, 24 h, read-out: MIC, Ec ATCC 25922; for MBC: ≥99.9% reduction of original inoculum, read-out: MBC, Ec ATCC 25922
Excerpt: as §1, §2, §3

[8] = tested on: Staphylococcus epidermidis ATCC 14990; experiment: as above; settings: Staphylococcus epidermidis; for MIC: broth microdilution, 35°C, 24 h, read-out: MIC, Se ATCC 14990; for MBC: ≥99.9% reduction of original inoculum, read-out: MBC, Se ATCC 14990
Excerpt: as §1, §2, §3

| SMILES | MIC ([1]; ATCC90030) | MFC ([1]; ATCC90030) | MIC ([2]; ATCC90028) | MFC ([2]; ATCC90028) | MIC ([3]; ATCC16424) | MFC ([3]; ATCC16424) | MIC ([4]; ATCC16404) | MFC ([4]; ATCC16404) | MBC ([5]; ATCC27853) | MBC ([6]; ATCC29213) | MBC ([7]; ATCC25922) | MBC ([8]; ATCC14990) | MIC ([1]; ATCC90030, 48 h) | MIC ([2]; ATCC90028, 48 h) | MIC ([3]; ATCC16424, 48 h) | MIC ([4]; ATCC16404, 48 h) | MIC ([5]; ATCC27853, 24 h) | MIC ([6]; ATCC29213, 24 h) | MIC ([7]; ATCC25922, 24 h) | MIC ([8]; ATCC14990, 24 h) | also measured |
| --- | --- | --- | --- | --- | --- | --- | --- | --- | --- | --- | --- | --- | --- | --- | --- | --- | --- | --- | --- | --- | --- |
| O=[N+]([O-])/C=C/c1cccc(O)c1 [Compound 19, 3-((E)-2-nitrovinyl) phenol] | 16 µg/mL (≈ 96.9 µM) | 16 µg/mL (≈ 96.9 µM) | 64 µg/mL (≈ 388 µM) | > 64 µg/mL | 64 µg/mL (≈ 388 µM) | > 64 µg/mL | 64 µg/mL (≈ 388 µM) | 64 µg/mL (≈ 388 µM) | > 64 µg/mL | > 64 µg/mL | > 64 µg/mL | > 64 µg/mL | – | – | – | – | – | – | – | – | MIC ([5]; ATCC27853): > 64 µg/mL; MIC ([6]; ATCC29213): > 64 µg/mL; MIC ([7]; ATCC25922): > 64 µg/mL; MIC ([8]; ATCC14990): 64 µg/mL (≈ 388 µM) |
| C/C(=C\c1ccc(Cl)cc1)[N+](=O)[O-] [Compound 2, 1-chloro-4-((E)-2-nitroprop-1-enyl) benzene] | 32 µg/mL (≈ 162 µM) | 32 µg/mL (≈ 162 µM) | > 64 µg/mL | > 64 µg/mL | > 64 µg/mL | > 64 µg/mL | 64 µg/mL (≈ 324 µM) | > 64 µg/mL | > 64 µg/mL | > 64 µg/mL | > 64 µg/mL | 32 µg/mL (≈ 162 µM) | – | – | – | – | – | – | – | – | MIC ([5]; ATCC27853): > 64 µg/mL; MIC ([6]; ATCC29213): > 64 µg/mL; MIC ([7]; ATCC25922): > 64 µg/mL; MIC ([8]; ATCC14990): 32 µg/mL (≈ 162 µM) |
| O=[N+]([O-])/C=C/c1ccc(Cl)cc1 [Compound 1, 1-chloro-4-((E)-2-nitrovinyl) benzene] | – | 4 µg/mL (≈ 21.8 µM) | – | 32 µg/mL (≈ 174 µM) | – | 8 µg/mL (≈ 43.6 µM) | – | 4 µg/mL (≈ 21.8 µM) | 64 µg/mL (≈ 349 µM) | 32 µg/mL (≈ 174 µM) | 32 µg/mL (≈ 174 µM) | 16 µg/mL (≈ 87.1 µM) | 4 µg/mL (≈ 21.8 µM) | 32 µg/mL (≈ 174 µM) | 8 µg/mL (≈ 43.6 µM) | 4 µg/mL (≈ 21.8 µM) | 32 µg/mL (≈ 174 µM) | 32 µg/mL (≈ 174 µM) | 32 µg/mL (≈ 174 µM) | 16 µg/mL (≈ 87.1 µM) | – |
| O=C(O)c1cn(C2CC2)c2cc(N3CCNCC3)c(F)cc2c1=O [Cipro, Ciprofloxacin, reference compound] | – | – | – | – | – | – | – | – | 1 µg/mL (≈ 3.02 µM) | 0.5 µg/mL (≈ 1.51 µM) | < 0.03 µg/mL | 0.25 µg/mL (≈ 0.754 µM) | – | – | – | – | 0.25 µg/mL (≈ 0.754 µM) | 0.25 µg/mL (≈ 0.754 µM) | < 0.03 µg/mL | 0.25 µg/mL (≈ 0.754 µM) | – |
| C/C(=C\c1ccc(N(C)C)cc1)[N+](=O)[O-] [Compound 5, N,N-dimethyl-4-((E)-2-nitroprop-1-enyl) benzenamine] | – | 32 µg/mL (≈ 155 µM) | – | > 64 µg/mL | – | > 64 µg/mL | – | > 64 µg/mL | > 64 µg/mL | > 64 µg/mL | > 64 µg/mL | > 64 µg/mL | 32 µg/mL (≈ 155 µM) | > 64 µg/mL | > 64 µg/mL | 64 µg/mL (≈ 310 µM) | > 64 µg/mL | > 64 µg/mL | > 64 µg/mL | > 64 µg/mL | – |
| COc1ccc(/C=C/[N+](=O)[O-])cc1 [Compound 13, 1-methoxy-4-((E)-2-nitrovinyl) benzene] | – | 32 µg/mL (≈ 179 µM) | – | 64 µg/mL (≈ 357 µM) | – | > 64 µg/mL | – | 64 µg/mL (≈ 357 µM) | > 64 µg/mL | 64 µg/mL (≈ 357 µM) | > 64 µg/mL | 32 µg/mL (≈ 179 µM) | 32 µg/mL (≈ 179 µM) | 64 µg/mL (≈ 357 µM) | 64 µg/mL (≈ 357 µM) | 64 µg/mL (≈ 357 µM) | > 64 µg/mL | 64 µg/mL (≈ 357 µM) | > 64 µg/mL | 32 µg/mL (≈ 179 µM) | – |
